6 compounds from patent US6329363A, “Cephalosporin antibiotics” (Eli Lilly and Company, priority 1998, dated 2001) can be followed below.

One assay relates to S.aureus 174 C. Put plainly: MIC, in vitro activity vs. S.aureus 174 C. The assay is classed as cell-based, Staphylococcus aureus. On the set-up: unit not given beside the values. As to conditions: Incubated at 37° C. overnight. As to the method: (§1) Table 2 summarizes the minimal inhibitory concentrations (MIC's) at which illustrative formula I compounds and cephalothin inhibit certain microorganisms associated with mastitis, such as Staphylococcus aureus 10092 (Newbould strain).
(§2) ^a Incubated at 37° C. overnight

The subject of assay [1] is Staphylococcus aureus 10092 (Newbould). Put plainly: Efficacy in induced Staphylococcus aureus mastitis model in lactating goats. Format: in vivo. To be noted: 8 halves per compound, 2 consecutive milkings 12 hours apart, approximately 25 mg/5 mL dose in peanut oil, from 36 hours post-challenge. From the text:
Sixteen lactating goats were selected based on the absence of Staphylococcus aureus in pre-challenge milk cultures. Maintenance ration was provided to the animals throughout the study. The goats were milked twice each day using a portable goat milker.
Milk samples were collected during the morning milking. One day prior to challenge, milk culture samples were collected from each half of the test animals to determine if there was a pre-existing infection. Additionally, a sample was collected from each half for Somatic Cell Count (SCC) determination. A milk culture sample and a sample for SCC were collected from each half 24 hours post-challenge and on Days +4 to +6, +8, +11, +13, and +15.
Udder scoring was performed during each milking wing table:
General health observations and body temperature were recorded once a day following milking during the challenge and treatment periods.
Milk samples were submitted for analysis for SCC using an electronic somatic cell counting system.
Milk culture samples were assayed for bacterial culture by plating 1.0 mL and 0.1 mL of the milk sample directly onto duplicate blood agar plates. Additionally, dilutions 10^-1 of the milk sample were plated. Plates were incubated overnight at 37° C.
Staphylococcus aureus 10092 (Newbould) was used as the challenge strain. The challenge culture was grown in Tryptic Soy Broth (TSB) from a lyovial stock overnight (16 hours) at 37° C. TSB (100 mL) was inoculated with 1 mL of the overnight culture and incubated at 37° C. with shaking for 4 hours. The culture was centrifuged at 9000 rpm for 10 minutes at 10° C.; supernatant was removed and the pellet was resuspended in phosphate buffered saline (PBS). Optimum O.D. reading at 650 nm was approximately 0.035. A 10-fold dilution series was prepared with saline to determine the CFU/mL, plating 10^-5, 10^-6, and 10^-7 dilutions onto duplicate blood agar plates. The 10^-7 dilution (approximately 10 CFU/mL) was used for the challenge material, yielding a challenge of 50 CFU/half with a 5-mL infusion.
Sixteen goats were used for the trial. During a one day pre-challenge period, milk samples were collected and temperatures were taken during the morning milking. Milk/udder evaluations were documented during the morning and afternoon milkings.
Staphylococcus aureus 10092 was infused into both halves in each of the goats. The goats were challenged following the morning milking and milked in the afternoon on the day of challenge. The challenge inoculum volume was 5 mL/half containing approximately 50 CFU S. aureus.
For the 24 hr post-challenge period milk samples were collected during the morning milking, and milk/udder evaluations made during the morning and afternoon milking.
Treatment was started at 36 hours post-challenge. Milk samples were collected for culture and SCC 24 hours post-challenge, prior to the morning milking, and the treatment period started following the afternoon milking.
Eight halves (4 goats) each were treated for 2 consecutive milkings 12 hours apart, following milking. Each designated compound was formulated in peanut oil with […] of compound per 5 g of formulation to give approximately 25 mg/5 mL dose.
Following treatment, the goats were milked and observed for 15 days. Milk samples were collected on Days +4 to +6, +8, +11, +13, and +15 to determine if the infection had cleared.
Establishment of mastitis was determined by bacterial culturing, severity of udder scoring, somatic cell count results, and body temperature.
On Days +2 to +6, milk samples were collected for a calorimetric assay to determine whether the antibiotic was still present in the milk.

The subject of assay [2] is Staphylococcus aureus 10092 (Newbould strain). Briefly: MIC, in vitro activity vs. S.aureus 10092. Format: cell-based. Also noted: unit not given beside the values. As to conditions: Incubated at 37° C. overnight. As to the method:
as §1, §2

The subject of another assay is S.aureus F1C. Put plainly: MIC, in vitro activity vs. S.aureus F1C. The assay is classed as cell-based, Staphylococcus aureus. On the set-up: unit not given beside the values. As to conditions: Incubated at 37° C. overnight. How it is done:
as §1, §2

In assay [3] the test system is Streptococcus uberis 166 L. Briefly: MIC, in vitro activity vs. Streptococcus uberis 166 L. The assay is classed as cell-based. On the set-up: unit not given beside the values. As to conditions: Incubated at 37° C. overnight. As to the method: as §1, §2
A further assay relates to S.aureus ATCC 29213. Briefly: MIC, in vitro activity vs. S.aureus ATCC 29213. Format: cell-based, Staphylococcus aureus. On the set-up: unit not given beside the values. As to conditions: Incubated at 37° C. overnight. As to the method:
as §1, §2

A further assay deals with Streptococcus agalactiae. Briefly: MIC, in vitro activity vs. Streptococcus agalactiae. To be noted: Incubated at 37° C. overnight. On the set-up: unit not given here. The assay is classed as cell-based. How it is done:
as §1, §2

Assay [4] concerns Strepcococcus dysgalactiae. Put plainly: MIC, in vitro activity vs. Streptococcus dysgalactiae. Format: cell-based. On the set-up: unit not given here. As to conditions: Incubated at 37° C. overnight. As to the method:
as §1, §2

The subject of assay [5] is Streptococcus uberis 150 L. Put plainly: MIC, in vitro activity vs. Streptococcus uberis 150 L. The assay is classed as cell-based. On the set-up: unit not given beside the values. As to conditions: Incubated at 37° C. overnight. As to the method:
as §1, §2

In a further assay the test system is Mastitis in Cows. Put plainly: Efficacy in mastitis in lactating cows. To be noted: three trials, 450 mmoles/quarter/dose for two doses. The assay is classed as in vivo. How it is done: Compound 1 was administered to lactating cows in three trials using methods analogous to those used in the goat model described in Example 13. A total of 43 quarters were treated with Compound 1, and 36 quarters were treated with cephapirin (Cefa-Lak). Both compounds were administered at 450 mmoles/quarter/dose for two doses. Compound 1 effectively treated 27 out of 43 quarters for an overall cure rate of 63%, whereas cephapirin effectively treated 18 out of 36 quarters for an overall cure rate of only 50%.

As to `Cc1nnc(SCC2=C(C(=O)O)N3C(=O)[C@@H](NC(=O)Cc4c(F)c(F)c(F)c(F)c4F)[C@H]3SC2)s1` [Compound 6], the “MIC vs. S.aureus 174 C” value in the assay on S.aureus 174 C worked out at 0.125. For the same compound, in assay [1], the “% Bacteriologic Cures” value was determined as 60%. In assay [2], the “MIC vs. S.aureus 10092” value came to 0.125. The “MIC vs. S.aureus F1C” value with S.aureus F1C is reported as 0.25. The “MIC vs. Streptococcus uberis 166 L” value in [3] is recorded as 0.0156. Besides, the “MIC vs. S.aureus ATCC 29213” value in the assay with S.aureus ATCC 29213 turned out to be 0.125. Moreover, the “MIC vs. Streptococcus agalactiae” value against Streptococcus agalactiae came out at 0.0625. The “MIC vs. Strepcococcus dysgalactiae” value in assay [4] is on record as 0.0312. Moreover, the “MIC vs. Streptococcus uberis 150 L” value in assay [5] is 0.0625.
On to `Cc1nnc(SCC2=C(C(=O)O)N3C(=O)[C@@H](NC(=O)COc4ccc(OC(F)(F)F)cc4)[C@H]3SC2)s1` [Compound 7], for which, in the assay with S.aureus 174 C, the “MIC vs. S.aureus 174 C” value was 0.312. Further, the “% Bacteriologic Cures” value in [1] turned out to be 100%. Besides, the “MIC vs. S.aureus 10092” value in [2] was found to be 0.312. In the assay with S.aureus F1C, the “MIC vs. S.aureus F1C” value was 0.0625. In addition, in assay [3], the “MIC vs. Streptococcus uberis 166 L” value was 0.0078. Moreover, the “MIC vs. S.aureus ATCC 29213” value against S.aureus ATCC 29213 turned out to be 0.312. Further, in the assay with Streptococcus agalactiae, the “MIC vs. Streptococcus agalactiae” value was determined as 0.0312. Also, the “MIC vs. Strepcococcus dysgalactiae” value in assay [4] is reported as not above 0.0078. Also, in assay [5], the “MIC vs. Streptococcus uberis 150 L” value is 0.0156.
With `Cc1nnc(SCC2=C(C(=O)O)N3C(=O)[C@@H](NC(=O)COc4ccc(F)cc4)[C@H]3SC2)s1` [Compound 8], in the assay with S.aureus 174 C, the “MIC vs. S.aureus 174 C” value was 0.0312. In assay [1], the “% Bacteriologic Cures” value was determined as 100%. Also, in assay [2], the “MIC vs. S.aureus 10092” value came to 0.0312. Further, the “MIC vs. S.aureus F1C” value with S.aureus F1C was determined as 0.0312. Moreover, the “MIC vs. Streptococcus uberis 166 L” value in [3] was 0.0312. The “MIC vs. S.aureus ATCC 29213” value against S.aureus ATCC 29213 turned out to be 0.312. Also, the “MIC vs. Streptococcus agalactiae” value against Streptococcus agalactiae stood at 0.0312. Further, the “MIC vs. Strepcococcus dysgalactiae” value in assay [4] amounted to 0.0312. For the same compound, the “MIC vs. Streptococcus uberis 150 L” value in [5] is on record as 0.0312.
`Cc1nnc(SCC2=C(C(=O)O)N3C(=O)[C@@H](NC(=O)COc4c(F)cc(F)cc4F)[C@H]3SC2)s1` [Compound 9]: in the assay on S.aureus 174 C, the “MIC vs. S.aureus 174 C” value came out at 0.0625. For the same compound, the “% Bacteriologic Cures” value in assay [1] was 83%. Also, the “MIC vs. S.aureus 10092” value in assay [2] amounted to 0.125. In the assay with S.aureus F1C, the “MIC vs. S.aureus F1C” value is recorded as 0.125. For the same compound, in assay [3], the “MIC vs. Streptococcus uberis 166 L” value worked out at 0.0625. For the same compound, the “MIC vs. S.aureus ATCC 29213” value in the assay on S.aureus ATCC 29213 was found to be 0.125. The “MIC vs. Streptococcus agalactiae” value with Streptococcus agalactiae was found to be 0.0312. Further, the “MIC vs. Strepcococcus dysgalactiae” value in [4] turned out to be 0.125. For the same compound, the “MIC vs. Streptococcus uberis 150 L” value in [5] is on record as 0.0625.
Take `Cc1nnc(SCC2=C(C(=O)O)N3C(=O)[C@@H](NC(=O)COc4cc(F)cc(F)c4)[C@H]3SC2)s1` [Compound 10]: the “MIC vs. S.aureus 174 C” value with S.aureus 174 C stood at 0.0312. The “% Bacteriologic Cures” value in assay [1] is on record as 33%. Besides, the “MIC vs. S.aureus 10092” value in assay [2] is recorded as 0.0312. In addition, in the assay on S.aureus F1C, the “MIC vs. S.aureus F1C” value is given as 0.0312. Further, in assay [3], the “MIC vs. Streptococcus uberis 166 L” value stood at 0.0156. Also, the “MIC vs. S.aureus ATCC 29213” value in the assay with S.aureus ATCC 29213 is given as 0.0312. Further, the “MIC vs. Streptococcus agalactiae” value against Streptococcus agalactiae is listed as 0.0156. For the same compound, the “MIC vs. Strepcococcus dysgalactiae” value in [4] is listed as 0.0312. Moreover, the “MIC vs. Streptococcus uberis 150 L” value in assay [5] was found to be 0.0312.
Turning to `CC(=O)OCC1=C(C(=O)O)N2C(=O)[C@@H](NC(=O)CSc3ccncc3)[C@H]2SC1` [cephapirin, reference compound], in the assay with Mastitis in Cows, the overall cure rate is 50% and the quarters effectively treated is reported as 18 out of 36.
